Source: a melting point compilation (Tetko et al.)

Structure (SMILES) | melting point [°C]
O=c1[nH]cnc2cc(Br)ccc12 | 262 to 264
Cc1sc(NC(=O)CCl)nc1-c1ccc(Cl)cc1 | 176 to 178
Cc1cn(-c2ncccc2F)nc1N | 131 to 133
O=C(O)C1(c2cccc(Cl)c2)CC1 | 135 to 137
Sc1nnnn1-c1ccc(Cl)cc1 | 162 to 164
CC(=O)c1ccc(S(N)(=O)=O)cc1 | 178 to 180
CC(Cl)C(=O)NCC(F)(F)F (configuration not stated) | 42 to 44
CC(Cl)C(=O)Nc1ccnn1C(C)C (configuration not stated) | 69 to 71
CN(C)c1ncncc1N | 97 to 99
O=c1cc(CCl)nc2ccc(Cl)cn12 | 149 to 151
O=[N+]([O-])c1c(F)ccc2ncccc12 | 84 to 86
CCNc1c(N)n(CC)c(=O)[nH]c1=O | 210 to 212
COc1cccc2c1CCC2=O | 105 to 107
O=C(O)c1ccc(N2CCCS2(=O)=O)cc1Cl | 226 to 228
CS(=O)(=O)CCn1cc(Br)cn1 | 94 to 96
Nc1c(Cl)nc(-c2ccccc2)nc1Cl | 140 to 142
CC(=O)CC(=O)Nc1ccc2nc(C)sc2c1 | 129 to 131
Cc1cc(C(=O)CCl)c(C)n1-c1ccc(OC(F)(F)F)cc1 | 76 to 80
CC1(c2ccc(C#N)cc2)NC(=O)NC1=O (configuration not stated) | 209 to 211
O=C(NC1CCS(=O)(=O)C1)OCC(F)(F)F (configuration not stated) | 79 to 81
O=C(O)c1cc(S(=O)(=O)NCc2ccccn2)c(Cl)cc1Cl | 231 to 233
OC1CCc2cc(Br)ccc21 (configuration not stated) | 69 to 71
Cc1cc(C(=O)c2cccnc2)ccc1F | 86 to 88
NC1CCN(c2ccc(Cl)c(Cl)c2)C1=O (configuration not stated) | 104 to 106

Structure (SMILES) | melting point [°C]
COc1ccc(-c2nn(-c3ccccc3)cc2C(=O)O)cc1OC | 188 to 190
CCCCN(C)c1ccc(C(=O)O)cc1 | 134 to 136
Nc1ccc(N2CCNC(=O)C2)c(Cl)c1 | 147 to 149
Cc1ccc(-n2c(S)nnc2-c2ccc(Cl)cc2)cc1 | 141 to 143
OCc1ccc2c(c1)CCC2 | 69 to 71
O=C(O)c1cn(Cc2ccccc2)nc1-c1ccccc1 | 189 to 191
NNC(=O)COc1ccccc1O | 152 to 154
O=C(CCl)NC1CCOCC1 | 82 to 84
O=c1[nH]cnc2ccc(Br)cc12 | 267 to 271
O=c1cc(CO)nc2sccn12 | 193 to 195
Nc1cc2c(c(C(=O)O)c1)OCCO2 | 213 to 215
CCn1c(=O)cc(Cl)[nH]c1=O | 210 to 212
O=C(CCl)Nc1sc2c(c1C(=O)c1ccccc1)CCCC2 | 110 to 112
Nc1cc(-c2ccoc2)nn1-c1ccccc1 | 129 to 131
O=C(O)CCc1cc(Br)ccc1F | 84 to 86
COc1ccc(NC(=O)C=CC(=O)O)cc1OC | 119 to 121
O=C(O)c1cc(NS(=O)(=O)c2cccs2)ccc1O | 209 to 211
COc1cc(C=O)cc2c1OCCO2 | 81 to 83
O=C(O)Cn1c(-c2ccccc2Cl)nc2ccccc21 | 276 to 278
O=S(=O)(CCCl)c1cccc(Br)c1 | 63 to 65
CC(=O)c1ccc2cc(O)ccc2c1 | 170 to 172
O=C(O)c1ccc(CS(=O)(=O)C(F)F)cc1 | 218 to 220
CC(C)(C)CCS(=O)(=O)Cl | 33 to 35
COc1ccc(Nc2nc3cc(S(=O)(=O)N4CCOCC4)ccc3o2)cc1 | 219 to 221

Structure (SMILES) | melting point [°C]
Cc1oc(C(=O)O)cc1S(N)(=O)=O | 225 to 227
CCc1nc(-c2ccc(C(=O)O)cc2)n[nH]1 | 229 to 231
O=C(O)C1(c2ccccc2F)CCCC1 | 106 to 108
O=C(O)c1cc([N+](=O)[O-])c(F)cc1Br | 171 to 173
O=C1CCc2cc(OCCO)ccc2N1 | 180 to 182
Cn1c(=O)n(Cc2ccc(Br)cc2)c(=O)c2ccc(C(F)(F)F)nc21 | 103 to 105
Cc1cc(-n2c(C)cc(C=O)c2C)no1 | 75 to 77
COc1ccc(/C=C(/C(=O)O)c2cccs2)cc1 | 205 to 207
Cc1cc(C#N)ccc1O | 89 to 91
CC1(C(=O)O)CCCc2ccccc21 (configuration not stated) | 113 to 115
CCN(CC)C(=O)c1cccc(N)c1 | 81 to 83
Nc1nc2c(s1)COCC2 | 144 to 146
O=C(O)c1[nH]c2ccc(F)cc2c1Cl | 279 to 281
CC(C)CN1C(=O)NC(=O)C1=O | 145 to 148
CSc1nn(C)c2nc[nH]c(=O)c12 | 251 to 253
Cc1nc2ccccn2c1CN1CCNCC1 | 163 to 165
Clc1ccc2nc(-c3ccccn3)[nH]c2c1 | 133 to 135
N#CCc1ccc(Oc2ncccn2)cc1 | 70 to 72
Cc1c(Cl)ccc(C(=O)O)c1N | 208 to 210
Cc1nn(C)c(C)c1CCC(=O)O | 137 to 139
Cc1cc(Oc2ccc(N)cc2)n[nH]1 | 189 to 191
Cc1c(C(=O)O)sc2nccn12 | 241 to 243
O=C(O)c1cn(-c2ccc(F)cc2)nn1 | 159 to 161
O=C(O)C1CC1c1c(F)cccc1F (configuration not stated) | 89 to 91

Structure (SMILES) | melting point [°C]
N#Cc1c(N)sc2c1CCCCC2 | 103 to 115
CC(Cc1ccc(Cl)cc1)C(=O)O (configuration not stated) | 49 to 51
Nc1ccc(-n2cncn2)c(Cl)c1 | 131 to 133
Cc1ccn2c(N)c(-c3cccs3)nc2c1 | 223 to 225
COCCOc1ccc(C(F)(F)F)cc1NC(=O)C(C)Cl (configuration not stated) | 59 to 61
O=Cc1cccc(Cl)c1O | 52 to 54
c1ccc(COc2ccc3cn[nH]c3c2)cc1 | 166 to 168
N#CCn1cc(N)cn1 | 71 to 73
Cc1nnc2n1CC(CO)CC2 (configuration not stated) | 158 to 160
O=C1CCSc2ccc(Br)cc21 | 49 to 51
O=C(O)c1cccc(C(F)F)c1 | 125 to 127
N#Cc1cccnc1OCC(F)(F)F | 40 to 42
CCOC(=O)N1CCc2nnc(Cl)cc2C1 | 106 to 108
O=C(O)Cc1csc(NC(=O)c2ccccc2F)n1 | 204 to 206
CCOC(=O)C(=O)c1nc2ccccc2n1C | 116 to 118
COc1ccc(C=C2CCCc3c2nc2ccccc2c3C(=O)O)cc1 | 157 to 159
Cc1nc(SCC(=O)O)c(C#N)c(C)c1C | 135 to 138
O=C(O)c1cnc(-c2ccoc2)s1 | 226 to 228
NC(=O)c1cccc(C(=O)O)n1 | 249 to 251
Nc1nc2ccc(F)cn2n1 | 166 to 168
Fc1ccc(-c2csc3ncnc(Cl)c23)cc1 | 139 to 141
O=C(O)c1noc(-c2cc(Cl)ccc2F)n1 | 113 to 115
N#Cc1ccc(-n2cc(C#N)c(N)n2)c(F)c1 | 258 to 260
Cc1cc(=O)n2c(C)csc2c1C#N | 178 to 180

Structure (SMILES) | melting point [°C]
CN(CC(=O)O)C(=O)Nc1cccc([N+](=O)[O-])c1 | 157 to 159
CCOC(=O)c1c(C)n(CC)c2ccc(O)cc12 | 183 to 185
Cc1c(N2CCOC2=O)cccc1[N+](=O)[O-] | 67 to 69
O=C(c1ccccc1)c1ccc(Cl)cc1O | 75 to 77
COc1cc(S(=O)(=O)Nc2ccc3c[nH]nc3c2)ccc1Br | 199 to 201
CCOC(=O)C1=NN(c2ccccc2)C(C#N)C1 (configuration not stated) | 99 to 101
O=C(O)CSc1nnc(-c2ccccc2)n1-c1ccc(Cl)cc1 | 224 to 226
CC(C)(C)OC(=O)Nc1ccc(Cc2nc(C(=O)O)cs2)cc1 | 164 to 166
O=Cc1ccc([N+](=O)[O-])c(O)c1 | 132 to 134
Cc1nc(-c2ccc(C(C)N)cc2)cs1 (configuration not stated) | 74 to 76
CCC(=O)Nc1ccc(Cl)c(N)c1 | 105 to 107
Nc1nnc(NS(=O)(=O)c2ccccc2)[nH]1 | 303 to 305
Oc1ccc(Oc2ccc(C(F)(F)F)cn2)cc1 | 90 to 92
O=C(O)Cc1ccc(S(=O)(=O)Cl)s1 | 85 to 87
N#Cc1cnn(-c2ccccc2)n1 | 90 to 92
CCOC(=O)c1c(C(C)(C)C)csc1N | 56 to 58
CC(C)NC(=O)c1ccc(C(=O)O)cc1 | 179 to 181
O=C(O)c1cc(S(=O)(=O)NCc2cccnc2)c(Cl)cc1Cl | 245 to 247
Cc1nc2c(c(C)c1CN)c(=O)[nH]n2C | 311 to 313
CCN(C(=O)OC(C)(C)C)C(C(N)=S)c1cccnc1 (configuration not stated) | 139 to 141
O=C(O)CCCCCCNC(=O)OCc1ccccc1 | 89 to 91
Cc1ccc(-n2nnnc2S)cc1C | 110 to 112
Nc1ccc2nc[nH]c(=O)c2c1 | 309 to 311
COc1ccc(C(=O)O)cc1S(=O)(=O)Cc1cc(C)no1 | 217 to 219

Structure (SMILES) | melting point [°C]
CC(C)(C)C1CCc2sc(-c3nnc(S)o3)cc2C1 (configuration not stated) | 176 to 178
Cc1cc(C(=O)O)c(C)n1-c1nccs1 | 173 to 175
OC(CN1CCNCC1)c1ccccc1 (configuration not stated) | 67 to 69
O=C(O)c1ccc2nnnn2c1 | 216 to 218
O=C(O)Cc1ccc([N+](=O)[O-])cc1F | 162 to 164
O=C(O)CCN1C(=O)Cc2ccccc2C1=O | 148 to 150
COc1ccc(C(=O)O)cc1S(=O)(=O)Cl | 153 to 155
O=C(O)C1CCCCN1C(=O)OCc1ccccc1 (configuration not stated) | 86 to 88
CC(=O)Nc1cc(C)nn1CCC#N | 159 to 161
CCN(CC)S(=O)(=O)c1ccc(-c2csc(N)n2)cc1 | 234 to 236
O=C1CCC(O)(c2cccc(Cl)c2)CC1 | 119 to 121
O=[N+]([O-])c1ccn(CCCBr)n1 | 35 to 37
N#CCc1c[nH]c2cc(F)ccc12 | 52 to 54
Cn1cc(S(=O)(=O)N2CCCCC2)cc1C(=O)O | 236 to 238
N#Cc1ncc(C(=O)O)cc1Br | 177 to 179
COCCNC(N)=O | 72 to 74
NS(=O)(=O)c1ccc(C(=O)O)o1 | 212 to 214
COc1cc(C(C)=O)ccc1OCC(=O)O | 165 to 167
CC1(C#N)CCN(C(=O)C(F)(F)F)CC1 | 41 to 43
Cc1ccccc1-c1nnc(CCl)o1 | 99 to 101
Nc1c([N+](=O)[O-])c(=O)oc2ccccc12 | 259 to 261
CC(=O)N1CCC(N)CC1 | 19 to 21
